From US5693812A, “Polymorphic forms of an angiotensin II antagonist” (priority 1996, dated 1997) come the findings set out here.

“And” between values parts separate entries of the source, which are not always exact repeats. Equal entries are not always repeated. “Also recorded” adds a separate entry of the source. Structures can show the parent of a compound that is named as a salt.

What all share (assay type): physicochemical
Data set [1] is described as follows: Equilibrium solubility in water at room temperature.
The nature of data set [2]: Thermogravimetric analysis (TGA) weight loss / water content. The note with it: for % Weight Loss (Δ 30-150° C. by TGA) / hydration state: potassium salt; for hydration state: TGA; for TG of the potassium salt: dried product, Example 1 Step K. On the procedure:
(§1) The crystal forms were characterized and evaluated by measuring the heats of solution or solution calorimetry, solubility data, x-ray powder diffraction patterns (XRPD), differential scanning calorimetry (DSC) and thermogravimetric analysis (TGA). Heats of solution at 30° C. were obtained in the Setaram C-80 calvet calorimeter with sample size of 7-13 mg dissolved into 5 ml of 88% DMSO 12% water for a final concentration of 1.4-2.6 mg/ml. XRPD patterns were recorded using an automated Siemens X-ray diffractometer with copper tube K alpha radiation. DSC and TGA were conducted using a Perkin Elmer series 7 instrument with a scan rate of 10° C./min over the temperature range of 30°-300° C. Utilizing these techniques the thermodynamic stability of the polymorphs of 3-[2'-(N-benzoyl)sulfonamidobiphenyl-4-yl]methyl-5,7-dimethyl-2-ethyl-3H-imidazo[4,5-b]pyridine potassium salt was determined.
Step K: Preparation of 3-[2'-(N-Benzyl)sulfonamidobiphenyl-4-yl]methyl-5,7-dimethyl-2-ethyl-3H-imidazo[4,5-b]pyridine potassium salt--(Forms I, Id and W) [drawing 13] In a 72-L four-necked flask fitted with an overhead stirrer and a reflux condenser, 3-[2'-(N-benzyl)sulfonamidobiphenyl-4-yl]methyl-5,7-dimethyl-2-ethyl-3H-imidazo[4,5-b]pyridine 1 (5.04 kg, 9.6 mol), methanol (14.5 L) and water (2.5 L) are mixed. The slurry is warmed to 62° C. under a nitrogen atmosphere and 1.94M potassium hydroxide (4.96 L, 9.61 mol) is added to the slurry at 62° C. over 1.5 hours to provide a homogeneous solution. Isopropyl acetate (13.83 L) is then added at 65° C. and the mixture is warmed to 70° C. The homogeneous solution is filtered at 70° C. to remove any particulates that are present. The filtrate is diluted with isopropyl acetate (1.3 L), methanol (0.6 L) and water (0.1 L). […] The homogeneous mixture is cooled to 52° C. over 2 hours, whereupon potassium salt seed of form "I" (140 g) is added. This mixture becomes cloudy after 30 min. The mixture is aged for 10 hours at 52° C. The white slurry is cooled to 48° C. over 1 hour and stirred for 3 hours. Finally, the crystallization mixture is cooled to 0° C. at a rate of 1° C./12.5 min. and aged for 2 hours at 0° C. […] The solid is centrifuged at 0° C. and displacement-washed with a mixture of 2:2:1 cold (0° C.) isopropyl acetate/methanol/water (5.65 L) followed by isopropyl acetate (2.3 L). The solid is semi-dried to a TG of 10-15% by spin drying. The mother liquors contain 21 wt % of 3-[2'-(N-benzyl)sulfonamidobiphenyl-4-yl]methyl-5,7-dimethyl-2-ethyl-3H-imidazo[4,5-b]pyridine potassium salt. At this stage, the crystal form of the product is form "W". The product is powdered by passing through a screen (size=12). The solid is dried by passing dry nitrogen over the solid under vacuum at 22° C. for 5 hours to yield 4.55 kg of 3-[2'-(N-benzyl)sulfonamidobiphenyl-4-yl]methyl-5,7-dimethyl-2-ethyl-3H-imidazo[4,5-b]pyridine potassium salt as the form "I" with a purity of 99.7% (assay-HClO4 titration) and TG of 7-10%. Generally, the wet cake consists of residual water, methanol and isopropyl acetate. The K-salt is considered dry when <0.05% methanol and isopropyl acetate are detected by ^1 H NMR. The product is further powdered by passing the solid through a Quadro Comil (model 197s, screen size=1143 mm round impeller) to yield 4.5 kg. The product is dried to a TG of 4.6-5.5% by the passage of dry nitrogen over the solid under vacuum at 22° C. After 10 hours, 4.24 kg (78%) of the potassium salt as the form "I" is obtained with a TG of […] (99.7 wt % by titration). The water content can be monitored by TG analysis. The TG of the potassium salt of form "I" is 4.6-5.5%. The crystal form is monitored by X-ray analysis. When the potassium salt is over dried, the crystal form converts to form "Id" (TG<4.6%). […]

A short description of data set [3]: Heat of solution by solution calorimetry (Setaram C-80). As to conditions: for ΔH solution 88% DMSO/12% H2O / ΔH solution DMSO at 30° C. / thermodynamic stability: potassium salt; for thermodynamic stability: from heats of solution and equilibrium solubility. The method, then: The heat of solution of different crystal forms of 3-[2'-(N-benzoyl)sulfonamidobiphenyl-4-yl]methyl-5,7-dimethyl-2-ethyl-3H-imidazo[4,5-b]pyridine potassium salt were studied at 30° C. The heat of solution is a measure of the crystal lattice energy. […] Heats of solution had to be conducted in a solvent which dissolved the samples quickly without conversion to another polymorph. This really limited solvents which could be used. Dimethylsulfoxide was chosen for this reason. The heats of solution therefore have contributions from the lattice energy of the solid as well as heat of dilution of lattice water in dimethylsulfoxide. The calorimeter therefore produces a complex signal that has an exothermic contribution from the water and an additional contribution from the energy required to dissolve the crystal. […] Additional heats of solution were determined in a mixed solvent system of 88% dimethylsulfoxide and 12% water. This system was used to minimize the contribution of moisture to the heat of solution.
as §1, with “C.” for “C. Utilizing these techniques the thermodynamic stability of the polymorphs of 3-[2'-(N-benzoyl)sulfonamidobiphenyl-4-yl]methyl-5,7-dimethyl-2-ethyl-3H-imidazo[4,5-b]pyridine potassium salt was determined.”

Data set [4] is described as follows: Crystal form stability in water (XRPD of remaining solid). The note with it: room temperature, potassium salt. The text has this: [13) S. R. Byre. "Solid State Chemistry of Drugs." Academic Press, New York, 1982.] […] Recrystallization of any of these lots from solvents like ethanol, methanol, isopropanol, acetone, etc. gave new crystal forms different from the original forms. […] Solubility in water at room temperature was one of these techniques. The equilibrium solubility in water, at room temperature for five polymorphs (Forms "B", "C", "D", "F", and "G") were the same (Table 1). When the remaining solids were filtered, air dried or vacuum dried overnight at room temperature the XRPD patterns had changed from the initial patterns and all were exactly the same. These experiments indicate that all of the crystal forms converted in water at room temperature to a new crystalline form designated […].
The remaining form "I" solid after equilibrium solubility studies in water was removed by filtration and vacuum dried overnight at room temperature.
After the discovery of form "I", form "D" could no longer be isolated in our laboratory. TGA studies indicate that form "I" of 3-[2'-(N-benzoyl)sulfonamidobiphenyl-4-yl]methyl-5,7-dimethyl-2-ethyl-3H-imidazo[4,5-b]pyridine potassium salt is a dihydrate (FIG. 4).

The nature of data set [5]: Crystal form stability on heating.
Data set [6] in a line: Crystal form conversion in acetonitrile, with or without water (XRPD). The note with it: overnight, room temperature, listed as D, potassium salt. From the text: Since all of the crystal forms of 3-[2'-(N-benzoyl)sulfonamidobiphenyl-4-yl]methyl-5,7-dimethyl-2-ethyl-3H-imidazo[4,5-b]pyridine potassium salt were changed to a single crystal form "D", in water, the effect of a non-aqueous solvent was studied. 3-[2'-(N-benzoyl)sulfonamidobiphenyl-4-yl]methyl-5,7-dimethyl-2-ethyl-3H-imidazo[4,5-b]pyridine potassium salt, Forms "A", "B", "C", and "D" were stirred overnight at room temperature in acetonitrile. The remaining solids were filtered and then vacuum dried overnight at room temperature. The crystallinity of the solids was examined by XRPD spectroscopy.
All of the crystal forms were converted to a single crystal form ("D") in water, but in acetonitrile to two different crystal forms. […] To explore the role of water in the above experiments, 3-[2'-(N-benzoyl)sulfonamidobiphenyl-4-yl]methyl-5,7-dimethyl-2-ethyl-3H-imidazo[4,5-b]pyridine potassium salt, form "C" (an anhydrous crystal form) was this time suspended in acetonitrile with added water (water was 10% of the solid weight). As a control experiment Form "C" was also suspended in acetonitrile with no added water. The samples were shaken overnight at room temperature. The remaining solids were filtered and vacuum dried overnight at room temperature.

The nature of data set [7]: Hygroscopicity studies / exposure to humidity.

Broadly, the solubility is the dissolved amount per volume that the medium holds. Low values mean a poorly soluble substance, high ones a readily soluble substance. The compound `CCc1nc2c(C)cc(C)nc2n1Cc1ccc(-c2ccccc2S(=O)(=O)NC(=O)c2ccccc2)cc1` [Form D, 3-[2'-(N-benzoyl)sulfonamidobiphenyl-4-yl]methyl-5,7-dimethyl-2-ethyl-3H-imidazo[4,5-b]pyridine potassium salt] displayed a solubility in data set [1] (water, room temperature, Table I) of 10400 ± 700 µg/mL. Further, in data set [2] (listed as D), the “% Weight Loss (Δ 30-150° C. by TGA)” value is listed as 12-14% and the hydration state result was “hydrated”. Moreover, in data set [3] (30° C., listed as D), the “ΔH solution 88% DMSO/12% H2O” value is listed as -16.33 ± 1.61 J/g and the “ΔH solution DMSO at 30° C.” value is listed as -1.36 ± 0.42 J/g. Moreover, in data set [3] (listed as D), the thermodynamic stability entry is on record as “metastable with respect to "I"”. Further, the “crystal form after suspension in water” value in data set [4] (listed as D) is “converted to form "I"”. In addition, the “crystal form after heating at 40° C. for 30 minutes” value in data set [5] (40° C., 30 minutes) is recorded as “did not change”. Further, the “crystal form after heating at 40° C. for 24 hours” value in data set [5] (40° C., 24 hours) is “crystallinity was reduced and XRPD pattern changed to a new form called "F"”. Further, the “crystal form after heating up to 190° C.” value in data set [5] (up to 190° C., a few minutes) was “produced a new crystalline anhydrous form designated "G"”. Also, the “crystal form after shaking in acetonitrile-water” value in data set [6] (acetonitrile with added water) is “the final crystal form was also "I"”. In addition, the “crystal form after stirring/shaking in acetonitrile” value in data set [6] (acetonitrile, no added water) is recorded as “converted to a new crystal form ("I"); also recorded: changed to form "I"”.

The solubility (thermodynamic) is solubility found after equilibrating the solid with the medium. Take `CCc1nc2c(C)cc(C)nc2n1Cc1ccc(-c2ccccc2S(=O)(=O)NC(=O)c2ccccc2)cc1` [Form I, 3-[2'-(N-benzoyl)sulfonamidobiphenyl-4-yl]methyl-5,7-dimethyl-2-ethyl-3H-imidazo[4,5-b]pyridine potassium salt]: in data set [1] (room temperature, Table I, potassium salt), the Solubility in water came to 8000 ± 400 µg/mL. The solubility (thermodynamic) in data set [1] (water, pH 7.8 printed for the other crystal forms) came out at 8000 µg/mL. Also, in data set [2] (listed as I), the “% Weight Loss (Δ 30-150° C. by TGA)” value is given as 4.1-5.9%; the hydration state result is recorded as “dihydrate”; the “TG of the potassium salt” value was 4.6-5.5% and 6.1% and 7-10%. In data set [3] (30° C., listed as I), the “ΔH solution 88% DMSO/12% H2O” value was -25.68 ± 2.67 J/g and the “ΔH solution DMSO at 30° C.” value is reported as -8.56 ± 1.64 J/g. Moreover, the “heat of solution, ranking” value in data set [3] (88% dimethylsulfoxide and 12% water) is on record as “most endothermic”. In data set [3] (dimethylsulfoxide, 30° C.), the “heat of solution, ranking” value is on record as “most endothermic”. Also, the thermodynamic stability entry in data set [3] (listed as I) is listed as “thermodynamically stable crystal form”. The “crystal form after suspension in water” value in data set [4] (listed as I) is reported as “remained unchanged”. The “crystal form after heating to about 216° C.” value in data set [5] (about 216° C.) is given as “converted to form H”. Further, the hygroscopicity entry in data set [7] (relative humidities of 47% and above) is listed as “non-hygroscopic”.

In the case of `CCc1nc2c(C)cc(C)nc2n1Cc1ccc(-c2ccccc2S(=O)(=O)NC(=O)c2ccccc2)cc1` [Form Id, 3-[2'-(N-benzoyl)sulfonamidobiphenyl-4-yl]methyl-5,7-dimethyl-2-ethyl-3H-imidazo[4,5-b]pyridine potassium salt], the “TG of the potassium salt” value in data set [2] (listed as Id) was < 4.6%. For the same compound, the “reconversion upon exposure to ambient humidity” value in data set [7] (ambient humidity) is on record as “reconverted to form "I"”.
